These results are taken from US9809598B2 (Merck Patent GmbH, priority 2014, dated 2017).

By IC50 is commonly meant the concentration that gives 50% inhibition. Broadly, the EC50 is the concentration that produces a half-maximal response.

For one test, the target named is T1, PARP-1 (Homo sapiens, UniProt P09874).
T1 construct: purchased Enzo Life Sciences GmbH, Lörrach, Germany
The test can be described thus: PARP-1 autoparsylation assay (HTRF). The format is biochemical. Conditions: His-tagged Parp-1, autoparsylation HTRF. The procedure, abridged:
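His-tagged enzyme auto-modifies itself using biotinylated NAD/NAD; product detected by TR-FRET between cryptate anti-His antibody and Xlent-streptavidin, as emission ratio.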
On the technique in general: TR-FRET usually uses a lanthanide donor and a delayed reading to cut background.

The target of a further test is T2, TNKS1 (Homo sapiens, UniProt O95271).
T2 construct: GST-tagged Tnks-1 (1023-1327 aa, prepared in-house); made in house
T2 sequence (O95271 1023-1327): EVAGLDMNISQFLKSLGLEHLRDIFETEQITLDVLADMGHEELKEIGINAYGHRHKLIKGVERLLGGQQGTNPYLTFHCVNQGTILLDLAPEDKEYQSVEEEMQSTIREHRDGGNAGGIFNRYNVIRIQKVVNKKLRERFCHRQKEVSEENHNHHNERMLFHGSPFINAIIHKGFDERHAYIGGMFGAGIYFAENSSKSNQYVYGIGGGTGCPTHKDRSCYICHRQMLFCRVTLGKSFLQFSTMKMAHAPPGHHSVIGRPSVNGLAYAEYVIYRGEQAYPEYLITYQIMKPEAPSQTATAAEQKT
The test can be described thus: TNKS1 activity ELISA (autoparsylation assay). The following applies: GST-tagged Tnks-1 (1023-1327 aa). In kind it is biochemical. The method, boiled down: (§1)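 GST-tagged TNKS1 or TNKS2 captured on glutathione plates and allowed to auto-PARsylate with biotinylated NAD with or without compound. Biotin-ADP-ribosylated enzyme detected by streptavidin-HRP and luminescence; IC50 relative to inhibitor-free reaction.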
Background: An ELISA detects its analyte on a solid surface through an enzyme-linked reagent.

The next test addresses T3, TNKS2 (Homo sapiens, UniProt Q9H2K2).
T3 construct: GST-tagged Tnks-2 (873-1166 aa, prepared in-house); made in house
The test can be described thus: TNKS2 activity ELISA (autoparsylation assay). In kind it is biochemical. The following applies: GST-tagged Tnks-2 (873-1166 aa); read-out: IC50 [M] TNKS2 ELISA. The procedure, abridged:
as §1

In another test the test system is Tankyrases. Conditions: read-out: EC50 [M] TNKS cellular assay; DLD1 cells, 24 hours, Axin2 increase.

T3 sequence (Q9H2K2 873-1166): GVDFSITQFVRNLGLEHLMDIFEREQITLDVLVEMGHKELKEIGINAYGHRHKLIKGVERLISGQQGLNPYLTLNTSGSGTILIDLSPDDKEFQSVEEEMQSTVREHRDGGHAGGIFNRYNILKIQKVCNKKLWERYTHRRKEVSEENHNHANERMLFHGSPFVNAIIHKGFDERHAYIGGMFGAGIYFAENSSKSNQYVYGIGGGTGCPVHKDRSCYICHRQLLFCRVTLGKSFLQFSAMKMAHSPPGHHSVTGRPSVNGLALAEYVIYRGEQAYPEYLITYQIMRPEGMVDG
T1 sequence (P09874 whole entry): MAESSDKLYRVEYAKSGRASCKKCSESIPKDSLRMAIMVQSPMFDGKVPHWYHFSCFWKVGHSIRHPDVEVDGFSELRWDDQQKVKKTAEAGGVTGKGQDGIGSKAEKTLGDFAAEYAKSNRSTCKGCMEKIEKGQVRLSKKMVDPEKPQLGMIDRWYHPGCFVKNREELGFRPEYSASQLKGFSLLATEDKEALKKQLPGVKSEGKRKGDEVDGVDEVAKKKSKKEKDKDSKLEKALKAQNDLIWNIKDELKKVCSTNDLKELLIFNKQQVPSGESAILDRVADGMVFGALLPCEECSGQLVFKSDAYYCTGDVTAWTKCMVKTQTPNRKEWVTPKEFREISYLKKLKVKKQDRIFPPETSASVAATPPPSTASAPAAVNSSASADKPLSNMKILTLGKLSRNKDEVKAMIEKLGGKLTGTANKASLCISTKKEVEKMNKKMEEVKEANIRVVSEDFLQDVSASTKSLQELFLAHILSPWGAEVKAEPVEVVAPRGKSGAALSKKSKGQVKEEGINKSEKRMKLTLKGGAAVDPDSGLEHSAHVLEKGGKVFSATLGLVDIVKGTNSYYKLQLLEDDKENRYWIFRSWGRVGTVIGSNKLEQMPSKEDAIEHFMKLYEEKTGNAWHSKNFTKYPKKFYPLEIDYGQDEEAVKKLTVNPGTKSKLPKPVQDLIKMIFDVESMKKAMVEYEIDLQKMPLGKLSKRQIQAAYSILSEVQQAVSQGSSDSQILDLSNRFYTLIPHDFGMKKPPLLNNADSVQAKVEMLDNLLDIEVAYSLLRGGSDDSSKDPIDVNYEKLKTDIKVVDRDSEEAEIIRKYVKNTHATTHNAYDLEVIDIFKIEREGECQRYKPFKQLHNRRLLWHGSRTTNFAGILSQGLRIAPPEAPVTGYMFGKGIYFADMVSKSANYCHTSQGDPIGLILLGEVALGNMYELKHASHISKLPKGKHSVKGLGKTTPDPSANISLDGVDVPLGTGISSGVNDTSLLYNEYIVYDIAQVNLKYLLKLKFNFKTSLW
Experimental for Tankyrases: Measurement of Cellular Inhibition of Tankyrase
Cells of the colon carcinoma cell line DLD1 are plated in 96 well plates with 1.5×10^4 cells per well. Next day, cells are treated with a serial dilution of test compound in seven steps as triplicates with a final DMSO concentration of 0.3%. […] The amount of isolated Axin2 protein is determined in a Luminex^200 machine (Luminex Corporation) according to the manufacturer's instruction by counting 100 events per well. […] As controls cells are treated with solvent alone (neutral control) and with a Tankyrase reference inhibitor IWR-2 (3E−06 M) which refers as control for maximum increase of Axin2. For analysis, the obtained data are normalized against the untreated solvent control and fitted for determination of the EC50 values using the Assay Explorer software (Accelrys).

For `Cc1ccc2c(=O)[nH]c(CCCC(=O)N3CCC(C(=O)c4ccc(C(C)(C)O)cc4)CC3)nn12` [Compound C155, 2-(4-{4-[4-(1-Hydroxy-1-methyl-ethyl)-benzoyl]-piperidin-1-yl}-4-oxo-butyl)-7-methyl-3H-pyrrolo[2,1-f][1,2,4]triazin-4-one], the IC50 against PARP-1 was found to be 0.6 µM; at TNKS1, 0.00057 µM; on TNKS2 it was 3.8e-10 M. In addition, the EC50 in the test on Tankyrases was found to be 1.6e-08 M.

Regarding `COc1ccc(C(=O)C2CCN(C(=O)CCCc3nn4cc(C)cc4c(=O)[nH]3)CC2)cc1F` [Compound C158, 2-{4-[4-(3-Fluoro-4-methoxy-benzoyl)-piperidin-1-yl]-4-oxo-butyl}-6-methyl-3H-pyrrolo[2,1-f][1,2,4]triazin-4-one], the IC50 at PARP-1 is 2.1 µM; against TNKS1, 0.00044 µM; on TNKS2, 9.2e-10 M. The half-maximal effective concentration (EC50) in the test with Tankyrases was 4.4e-09 M.

For `COc1ccc(C(=O)C2CCN(C(=O)CCCc3nn4cc(C)cc4c(=O)[nH]3)CC2)cn1` [Compound C159, 2-{4-[4-(6-Methoxy-pyridine-3-carbonyl)-piperidin-1-yl]-4-oxo-butyl}-6-methyl-3H-pyrrolo[2,1-f][1,2,4]triazin-4-one], the IC50 at PARP-1 is 2.2 µM; at TNKS1, 0.0012 µM; at TNKS2, 2.7e-09 M. In the test with Tankyrases, the EC50 is 3.6e-08 M.

For `Cc1cc2c(=O)[nH]c(CCCC(=O)N3CCC(c4cnc(N)c(C#N)c4)CC3)nn2c1` [Compound C160, 6-Amino-1′-[4-(6-methyl-4-oxo-3,4-dihydro-pyrrolo[2,1-f][1,2,4]triazin-2-yl)-butyryl]-1′,2′,3′,4′,5′,6′-hexahydro-[3,4′]bipyridinyl-5-carbonitrile], the IC50 against PARP-1 came to 3.3 µM; against TNKS1, 0.0018 µM; on TNKS2 it was 1e-08 M. Moreover, in the test on Tankyrases, the EC50 was 4.9e-08 M.

In the case of `Cc1cc2c(=O)[nH]c(CCCC(=O)N3CCC(c4cnc(N)c(-c5ncccn5)c4)CC3)nn2c1` [Compound C161, 2-[4-(6-Amino-5-pyrimidin-2-yl-3′,4′,5′,6′-tetrahydro-2′H-[3,4′]bipyridinyl-1′-yl)-4-oxo-butyl]-6-methyl-3H-pyrrolo[2,1-f][1,2,4]triazin-4-one], the half-inhibitory concentration (IC50) is 4.3 µM on PARP-1, 0.00062 µM against TNKS1 and 2.9e-09 M at TNKS2. Besides, in the test with Tankyrases, the half-maximal effective concentration (EC50) stood at 9.7e-09 M.

Consider `Cc1cc2c(=O)[nH]c(CCCC(=O)N3CCC(c4nnc(-c5ccccc5)o4)CC3)nn2c1` [Compound C162, 6-Methyl-2-{4-oxo-4-[4-(5-phenyl-[1,3,4]oxadiazol-2-yl)-piperidin-1-yl]-butyl}-3H-pyrrolo[2,1-f][1,2,4]triazin-4-one], for which the IC50 at PARP-1 came to 1.4 µM; at TNKS1, 0.02 µM; at TNKS2, 3.7e-08 M. Also, the EC50 in the test with Tankyrases was 5e-07 M.

In the case of `Cc1cc2c(=O)[nH]c(CCCC(=O)N3CCC(Oc4ccc(C#N)cc4)CC3)nn2c1` [Compound C163, 4-{1-[4-(6-Methyl-4-oxo-3,4-dihydro-pyrrolo[2,1-f][1,2,4]triazin-2-yl)-butyryl]-piperidin-4-yloxy}-benzonitrile], the IC50 against PARP-1 was found to be 1.3 µM; against TNKS1, 0.021 µM; on TNKS2, 2.5e-08 M. The EC50 in the test with Tankyrases was determined as 2e-07 M.

For the compound `Cc1cc2c(=O)[nH]c(CCCC(=O)N3CCC(C(=O)c4ccc(F)cc4)CC3)nn2c1` [Compound C164, 2-{4-[4-(4-Fluoro-benzoyl)-piperidin-1-yl]-4-oxo-butyl}-6-methyl-3H-pyrrolo[2,1-f][1,2,4]triazin-4-one], the IC50 against PARP-1 came to 2.2 µM; against TNKS1, 0.00079 µM; on TNKS2 it was 2.8e-09 M. Further, the concentration giving a half-maximal response (EC50) with Tankyrases is 2.5e-08 M.

Regarding `COc1ccc(C(=O)C2CCN(C(=O)CCCc3nn4cc(C)cc4c(=O)[nH]3)CC2)cc1C` [Compound C165, 2-{4-[4-(4-Methoxy-3-methyl-benzoyl)-piperidin-1-yl]-4-oxo-butyl}-6-methyl-3H-pyrrolo[2,1-f][1,2,4]triazin-4-one], the figures for the IC50 against PARP-1, on TNKS1 and at TNKS2 were 2.1 µM, 0.00022 µM and 2.2e-10 M, respectively. For the same compound, the EC50 in the test on Tankyrases turned out to be 1.7e-09 M.

For the compound `Cc1cc2c(=O)[nH]c(CCCC(=O)N3CCC(C(=O)c4ccc(C(C)(C)O)cc4)CC3)nn2c1` [Compound C166, 2-(4-{4-[4-(1-Hydroxy-1-methyl-ethyl)-benzoyl]-piperidin-1-yl}-4-oxo-butyl)-6-methyl-3H-pyrrolo[2,1-f][1,2,4]triazin-4-one], the results for the half-maximal inhibitory concentration (IC50) at PARP-1, against TNKS1 and on TNKS2 were 1.4 µM, 0.012 µM and 1.7e-08 M, respectively. Moreover, the EC50 in the test with Tankyrases came out at 1.8e-07 M.

In the case of `Cc1cc2c(=O)[nH]c(CCCC(=O)N3CCC(C(=O)c4cnn(C)c4)CC3)nn2c1` [Compound C168, 6-Methyl-2-{4-[4-(1-methyl-1H-pyrazole-4-carbonyl)-piperidin-1-yl]-4-oxo-butyl}-3H-pyrrolo[2,1-f][1,2,4]triazin-4-one], the results for the half-maximal inhibitory concentration (IC50) against PARP-1, on TNKS1 and on TNKS2 were 5.8 µM, 0.001 µM and 3.5e-09 M, respectively. Besides, in the test with Tankyrases, the concentration giving a half-maximal response (EC50) came to 3.4e-08 M.

Turning to `COc1ccc(C(=O)C2CCN(C(=O)CCCc3nn4cc(F)cc4c(=O)[nH]3)CC2)cc1F` [Compound C169, 6-Fluoro-2-{4-[4-(3-fluoro-4-methoxy-benzoyl)-piperidin-1-yl]-4-oxo-butyl}-3H-pyrrolo[2,1-f][1,2,4]triazin-4-one], the IC50 worked out at 2.2 µM on PARP-1, 0.00017 µM on TNKS1 and 2.2e-10 M on TNKS2. Besides, the EC50 in the test with Tankyrases was found to be 2.5e-09 M.

In the case of `COc1ccc(C(=O)C2CCN(C(=O)CCCc3nn4cc(F)cc4c(=O)[nH]3)CC2)cn1` [Compound C170, 6-Fluoro-2-{4-[4-(6-methoxy-pyridine-3-carbonyl)-piperidin-1-yl]-4-oxo-butyl}-3H-pyrrolo[2,1-f][1,2,4]triazin-4-one], the IC50 against PARP-1 is 2.8 µM; at TNKS1 it was 0.00067 µM; on TNKS2 it was 9.9e-10 M. For the same compound, the EC50 with Tankyrases worked out at 1.9e-08 M.

On to `N#Cc1cc(C2CCN(C(=O)CCCc3nn4cc(F)cc4c(=O)[nH]3)CC2)cnc1N` [Compound C171, 6-Amino-1′-[4-(6-fluoro-4-oxo-3,4-dihydro-pyrrolo[2,1-f][1,2,4]triazin-2-yl)-butyryl]-1′,2′,3′,4′,5′,6′-hexahydro-[3,4′]bipyridinyl-5-carbonitrile], for which the figures for the half-maximal inhibitory concentration (IC50) on PARP-1, against TNKS1 and at TNKS2 were 6.3 µM, 0.0017 µM and 3.6e-09 M, respectively. In the test with Tankyrases, the EC50 came out at 4.6e-08 M.

Regarding `Nc1ncc(C2CCN(C(=O)CCCc3nn4cc(F)cc4c(=O)[nH]3)CC2)cc1-c1ncccn1` [Compound C172, 2-[4-(6-Amino-5-pyrimidin-2-yl-3′,4′,5′,6′-tetrahydro-2′H-[3,4′]bipyridinyl-1′-yl)-4-oxo-butyl]-6-fluoro-3H-pyrrolo[2,1-f][1,2,4]triazin-4-one], the IC50 against PARP-1 was 2.5 µM; against TNKS1, 0.00061 µM; at TNKS2, 5.3e-10 M. The concentration for a half-maximal effect (EC50) in the test on Tankyrases came to 6.8e-09 M.

For `O=C(CCCc1nn2cc(F)cc2c(=O)[nH]1)N1CCC(c2nnc(-c3ccccc3)o2)CC1` [Compound C173, 6-Fluoro-2-{4-oxo-4-[4-(5-phenyl-[1,3,4]oxadiazol-2-yl)-piperidin-1-yl]-butyl}-3H-pyrrolo[2,1-f][1,2,4]triazin-4-one], the values for the half-maximal inhibitory concentration (IC50) on PARP-1, at TNKS1 and on TNKS2 were 3.2 µM, 0.015 µM and 1.4e-08 M, respectively. For the same compound, the EC50 in the test on Tankyrases is 8.5e-08 M.

With `N#Cc1ccc(OC2CCN(C(=O)CCCc3nn4cc(F)cc4c(=O)[nH]3)CC2)cc1` [Compound C174, 4-{1-[4-(6-Fluoro-4-oxo-3,4-dihydro-pyrrolo[2,1-f][1,2,4]triazin-2-yl)-butyryl]-piperidin-4-yloxy}-benzonitrile], the 50% inhibitory concentration (IC50) against PARP-1 was 0.27 µM; against TNKS1, 0.064 µM; on TNKS2, 4.9e-08 M. Moreover, the EC50 in the test with Tankyrases was determined as 7.8e-07 M.

Turning to `O=C(c1ccc(F)cc1)C1CCN(C(=O)CCCc2nn3cc(F)cc3c(=O)[nH]2)CC1` [Compound C175, 6-Fluoro-2-{4-[4-(4-fluoro-benzoyl)-piperidin-1-yl]-4-oxo-butyl}-3H-pyrrolo[2,1-f][1,2,4]triazin-4-one], the half-maximal inhibitory concentration (IC50) at PARP-1 amounted to 4.9 µM; on TNKS1 it was 0.00047 µM; on TNKS2, 8.1e-10 M. Besides, in the test on Tankyrases, the EC50 is 3.7e-08 M.

As for `CC(C)(O)c1ccc(C(=O)C2CCN(C(=O)CCCc3nn4cc(F)cc4c(=O)[nH]3)CC2)cc1` [Compound C177, 6-Fluoro-2-(4-{4-[4-(1-hydroxy-1-methyl-ethyl)-benzoyl]-piperidin-1-yl}-4-oxo-butyl)-3H-pyrrolo[2,1-f][1,2,4]triazin-4-one], the IC50 against PARP-1 is 8 µM; against TNKS1, 0.0071 µM; on TNKS2, 4.8e-09 M. For the same compound, the concentration giving a half-maximal response (EC50) in the test with Tankyrases is 6.7e-08 M.

Regarding `COc1ccc(C(=O)C2CCN(C(=O)CCCc3nc4c(ccn4C)c(=O)[nH]3)CC2)cc1F` [Compound C180, 2-{4-[4-(3-Fluoro-4-methoxy-benzoyl)-piperidin-1-yl]-4-oxo-butyl}-7-methyl-3,7-dihydro-pyrrolo[2,3-d]pyrimidin-4-one], the figures for the half-inhibitory concentration (IC50) against PARP-1, against TNKS1 and at TNKS2 were 1.9 µM, 0.00018 µM and under 1e-10 M, respectively. For the same compound, the half-maximal effective concentration (EC50) in the test on Tankyrases was found to be 3.3e-09 M.

`COc1ccc(C(=O)C2CCN(C(=O)CCCc3nc4c(ccn4C)c(=O)[nH]3)CC2)cn1` [Compound C181, 2-{4-[4-(6-Methoxy-pyridine-3-carbonyl)-piperidin-1-yl]-4-oxo-butyl}-7-methyl-3,7-dihydro-pyrrolo[2,3-d]pyrimidin-4-one]: the IC50 amounted to 2.3 µM on PARP-1, 0.00065 µM at TNKS1 and 2.4e-10 M on TNKS2. The EC50 in the test with Tankyrases stood at 7.3e-09 M.
